Among the data in patent US20250179078A1, “INHIBITORS OF NLRP3” (PTC THERAPEUTICS, INC., priority 2022, published 2025) are IC50 values, retold here.

The structures appear in SMILES notation.

T1 sequence (Q96P20 whole entry): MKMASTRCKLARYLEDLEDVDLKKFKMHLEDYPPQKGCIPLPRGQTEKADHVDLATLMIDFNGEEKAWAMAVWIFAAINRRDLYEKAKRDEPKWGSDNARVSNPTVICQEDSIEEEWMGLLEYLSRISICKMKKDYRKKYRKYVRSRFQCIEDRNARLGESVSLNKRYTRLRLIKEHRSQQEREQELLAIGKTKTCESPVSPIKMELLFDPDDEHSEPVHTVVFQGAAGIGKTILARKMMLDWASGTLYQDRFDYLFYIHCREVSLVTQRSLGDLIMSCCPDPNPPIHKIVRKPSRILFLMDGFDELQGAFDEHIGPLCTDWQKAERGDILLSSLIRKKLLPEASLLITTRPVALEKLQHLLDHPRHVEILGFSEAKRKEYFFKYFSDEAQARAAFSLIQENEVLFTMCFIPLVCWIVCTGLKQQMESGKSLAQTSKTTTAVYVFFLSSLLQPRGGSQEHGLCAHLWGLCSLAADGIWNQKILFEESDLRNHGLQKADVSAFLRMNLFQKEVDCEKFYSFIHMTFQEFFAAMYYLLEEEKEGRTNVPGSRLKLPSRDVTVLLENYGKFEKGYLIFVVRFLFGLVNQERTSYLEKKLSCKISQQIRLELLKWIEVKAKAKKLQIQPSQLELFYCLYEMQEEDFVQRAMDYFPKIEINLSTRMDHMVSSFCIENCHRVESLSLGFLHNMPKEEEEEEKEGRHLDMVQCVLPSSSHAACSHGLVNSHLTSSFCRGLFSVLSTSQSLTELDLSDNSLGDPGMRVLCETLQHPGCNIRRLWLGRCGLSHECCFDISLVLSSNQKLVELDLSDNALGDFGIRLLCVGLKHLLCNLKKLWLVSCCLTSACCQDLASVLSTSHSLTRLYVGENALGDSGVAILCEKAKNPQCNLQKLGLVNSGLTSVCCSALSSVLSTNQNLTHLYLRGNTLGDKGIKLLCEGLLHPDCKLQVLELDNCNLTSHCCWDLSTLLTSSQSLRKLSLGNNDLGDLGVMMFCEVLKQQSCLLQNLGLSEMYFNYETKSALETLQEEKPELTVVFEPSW

This assay has as its target T1, NLRP3 (Homo sapiens, UniProt Q96P20).
T1 construct: host or cells: THP-1 cells differentiated with PMA
Nature of the assay: IL-1β Secretion Assay (NLRP3-dependent IL1β secretion in THP1 cells). Type of assay: cell-based. Conditions: PMA-differentiated THP-1 cells; compounds incubated 20 h; 2.5 μM Nigericin 3 h; HTRF IL-1β readout; read-out: IC50 IL-1β Inhibition. An outline of the steps:
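IL-1β in conditioned media, measured by HTRF after 3 h 2.5 μM nigericin stimulation, gave % inhibition fitted logistically for IC50. Before that, PMA-differentiated (100 ng/mL, 24 h) THP-1 cells were preincubated 20 h with 7 compound concentrations (3-fold serial, DMSO 1:200).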
Turning to `Cc1ccc(-c2nnc(NC3CCNC3=O)n3cncc23)c(CC(F)(F)F)c1` (stereo not drawn) [Compound 288, 3-({1-[4-methyl-2-(2,2,2-trifluoroethyl)phenyl]imidazo[1,5-d][1,2,4]triazin-4-yl}amino)pyrrolidin-2-one], the concentration for half-maximal inhibition (IC50) is 1 to 10 nM. For the compound `O[C@H]1COCC[C@@H]1Nc1nnc(-c2ccc(C(F)(F)F)cc2CC(F)(F)F)c2cccn12` [Compound 113, (3R,4S)-4-({1-[2-(2,2,2-trifluoroethyl)-4-(trifluoromethyl)phenyl]pyrrolo[1,2-d][1,2,4]triazin-4-yl}amino)oxan-3-ol], the IC50 was in the range of 1 to 10 nM. `COc1ccc(-c2nnc(N[C@H]3C[C@@H](CO)C3)n3cncc23)c(OC(F)(F)F)c1` [Compound 291, [(1s,3s)-3-({1-[4-methoxy-2-(trifluoromethoxy)phenyl]imidazo[1,5-d][1,2,4]triazin-4-yl}amino)cyclobutyl]methanol]: the 50% inhibitory concentration (IC50) fell in the range of 1 to 10 nM. `O[C@H]1CCC[C@@H](Nc2nnc(-c3ccc(C4CC4)cc3CC(F)(F)F)c3cncn23)C1` [Compound 353, (1S,3R)-3-({1-[4-cyclopropyl-2-(2,2,2-trifluoroethyl)phenyl]imidazo[1,5-d][1,2,4]triazin-4-yl}amino)cyclohexan-1-ol]: the half-maximal inhibitory concentration (IC50) is 1 to 10 nM. Under `OCCN1CCC[C@@H](Nc2nnc(-c3ccc(Br)cc3OC(F)F)c3cncn23)C1` [Compound 198, 2-[(3R)-3-({1-[4-bromo-2-(difluoromethoxy)phenyl]imidazo[1,5-d][1,2,4]triazin-4-yl}amino)piperidin-1-yl]ethan-1-ol] stands less than 1 nM; under `COc1ccc(-c2nnc(N[C@H]3CCCC[C@@H]3O)n3cc(C)cc23)c(OC(F)(F)F)c1` [Compound 133, (1S,2S)-2-({1-[4-methoxy-2-(trifluoromethoxy)phenyl]-7-methylpyrrolo[1,2-d][1,2,4]triazin-4-yl}amino)cyclohexan-1-ol], 10 to 100 nM. `O[C@@H]1CCCC[C@H]1Nc1nnc(-c2ccc(Br)cc2OC(F)(F)F)c2cncn12` [Compound 307, (1R,2R)-2-({1-[4-bromo-2-(trifluoromethoxy)phenyl]imidazo[1,5-d][1,2,4]triazin-4-yl}amino)cyclohexan-1-ol]: the IC50 is 1 to 10 nM.

Consider `O[C@H]1CCCC[C@@H]1Nc1nnc(-c2ccc(C(F)(F)F)cc2OC(F)(F)F)c2cccn12` [Compound 121, (1S,2S)-2-({1-[2-(trifluoromethoxy)-4-(trifluoromethyl)phenyl]pyrrolo[1,2-d][1,2,4]triazin-4-yl}amino)cyclohexan-1-ol], for which the half-inhibitory concentration (IC50) lay in the range of 10 to 100 nM. Next, `COc1ccc(-c2nnc(N[C@H]3C[C@@](C)(CO)C3)n3cncc23)c(OC(F)(F)F)c1` [Compound 342, [(1s,3s)-3-({1-[4-methoxy-2-(trifluoromethoxy)phenyl]imidazo[1,5-d][1,2,4]triazin-4-yl}amino)-1-methylcyclobutyl]methanol]: 10 to 100 nM. Next, `CCc1ccc(-c2nnc(N[C@@H]3CCCN(C)C3)n3cccc23)c(OC(F)(F)F)c1` [Compound 42, 1-[4-ethyl-2-(trifluoromethoxy)phenyl]-N-[(3R)-1-methylpiperidin-3-yl]pyrrolo[1,2-d][1,2,4]triazin-4-amine]: 1 to 10 nM; `COc1ccc(-c2nnc(N[C@@H]3C[C@@H](F)CN(C)C3)n3cncc23)c(CC(F)(F)F)c1` [Compound 277, N-[(3R,5R)-5-fluoro-1-methylpiperidin-3-yl]-1-[4-methoxy-2-(2,2,2-trifluoroethyl)phenyl]imidazo[1,5-d][1,2,4]triazin-4-amine]: 1 to 10 nM.

Take `Cc1cc2c(-c3ccc(C(F)(F)F)cc3C(F)F)nnc(N[C@@H]3CCCN(C)C3)n2n1` [Compound 359, 4-[2-(difluoromethyl)-4-(trifluoromethyl)phenyl]-2-methyl-N-[(3R)-1-methylpiperidin-3-yl]pyrazolo[1,5-d][1,2,4]triazin-7-amine]: the 50% inhibitory concentration (IC50) lay within 1 to 10 nM.
